Test results taken from the supplement of paper PMC10307832.

Key:
Assay in all cases: relative viability (nuclei count vs DMSO), 5 days (fraction); higher = more cells survive
VE-821 + Tozasertib = compound: CS(=O)(=O)c1ccc(-c2cnc(N)c(C(=O)Nc3ccccc3)n2)cc1 [VE-821] + Cc1cc(Nc2cc(N3CCN(C)CC3)nc(Sc3ccc(NC(=O)C4CC4)cc3)n2)n[nH]1 [Tozasertib] (partner 0.1 µM)
Outline: (§1)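 Lung cancer cell lines in 1536-well plates were dosed by pin tool the day after seeding, either with one drug alone or with a fixed anchor-drug dose plus five library-drug doses (not always all listed) in √10 steps. After 5 days, cells were fixed and their nuclei stained in one step (final 0.05% Triton X-100, 1% formaldehyde, 1 ug/ml Hoechst), then counted on 4× images. Relative viability is the nuclei count in treated wells divided by that in vehicle wells. Values are medians of duplicate plates.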

Vismodegib + Trametinib = compound: CS(=O)(=O)c1ccc(C(=O)Nc2ccc(Cl)c(-c3ccccn3)c2)c(Cl)c1 [Vismodegib] + CC(=O)Nc1cccc(-n2c(=O)n(C3CC3)c(=O)c3c(Nc4ccc(I)cc4F)n(C)c(=O)c(C)c32)c1 [Trametinib] (partner 0.02 µM)
Outline: as §1

Vismodegib + Pemetrexed = compound: CS(=O)(=O)c1ccc(C(=O)Nc2ccc(Cl)c(-c3ccccn3)c2)c(Cl)c1 [Vismodegib] + Nc1nc2[nH]cc(CCc3ccc(C(=O)N[C@@H](CCC(=O)O)C(=O)O)cc3)c2c(=O)[nH]1 [Pemetrexed] (partner 0.2 µM)
Outline: as §1

Ruxolitinib + Dasatinib = compound: N#CC[C@H](C1CCCC1)n1cc(-c2ncnc3[nH]ccc23)cn1 [Ruxolitinib] + Cc1nc(Nc2ncc(C(=O)Nc3c(C)cccc3Cl)s2)cc(N2CCN(CCO)CC2)n1 [Dasatinib] (partner 0.075 µM)
Outline: as §1

Cell Line	relative viability (VE-821 + Tozasertib; first compound 0.08 µM)	relative viability (VE-821 + Tozasertib; first compound 0.253 µM)	relative viability (VE-821 + Tozasertib; first compound 0.8 µM)	relative viability (VE-821 + Tozasertib; first compound 2.53 µM)	relative viability (VE-821 + Tozasertib; first compound 8 µM)	relative viability (Vismodegib + Trametinib; first compound 0.08 µM)	relative viability (Vismodegib + Trametinib; first compound 0.253 µM)	relative viability (Vismodegib + Trametinib; first compound 0.8 µM)	relative viability (Vismodegib + Trametinib; first compound 2.53 µM)	relative viability (Vismodegib + Trametinib; first compound 8 µM)	relative viability (Vismodegib + Pemetrexed; first compound 0.08 µM)	relative viability (Vismodegib + Pemetrexed; first compound 0.253 µM)	relative viability (Vismodegib + Pemetrexed; first compound 0.8 µM)	relative viability (Vismodegib + Pemetrexed; first compound 2.53 µM)	relative viability (Vismodegib + Pemetrexed; first compound 8 µM)	relative viability (Ruxolitinib + Dasatinib; first compound 0.08 µM)	relative viability (Ruxolitinib + Dasatinib; first compound 0.253 µM)	relative viability (Ruxolitinib + Dasatinib; first compound 0.8 µM)	relative viability (Ruxolitinib + Dasatinib; first compound 2.53 µM)	relative viability (Ruxolitinib + Dasatinib; first compound 8 µM)
HCC-44	1.08	0.865	0.841	0.907	0.708	1.11	1.05	1.05	1.04	0.976	0.663	0.629	0.616	0.638	0.677					
HCC-78	0.461	0.362	0.385	0.372	0.321	0.826	0.768	0.598	0.743	0.739	0.907	0.951	0.961	0.785	0.891	0.39	0.319	0.387	0.354	0.323
HCC-366	0.0768	0.0713	0.0434	0.0568	0.0298	0.348	0.292	0.334	0.37	0.343	0.164	0.17	0.186	0.166	0.158	0.646	0.547	0.595	0.431	0.52
HCC-827	0.427	0.424	0.391	0.394	0.372	0.519	0.491	0.528	0.522	0.509	0.246	0.283	0.563	0.284	0.267	0.133	0.3	0.346	0.231	0.199
HOP-62	0.399	0.404	0.349	0.382	0.361	0.357	0.379	0.37	0.354	0.376	0.305	0.295	0.263	0.377	0.272	0.698	0.588	0.739	0.557	0.342
LC-2-ad	0.427	0.597	0.504	0.565	0.426	0.892	0.834	0.894	0.834	0.898	0.269	0.271	0.278	0.276	0.26		0.476	0.54	0.382	0.272
LCLC-97TM1	0.307	0.224	0.213	0.484	0.184	0.207	0.166	0.205	0.173	0.208	0.205	0.171	0.149	0.176	0.178	0.912	0.731	0.712	0.62	0.623
LCLC-103H	0.505	0.424	0.389	0.458	0.362	0.703	0.666	0.65	0.612	0.71	0.431	0.552	0.474	0.473	0.481	0.418	0.448	0.564	0.382	0.362
LK-2	0.172	0.174	0.161	0.197	0.202	0.645	0.726	0.628	0.831	0.615	0.248	0.255	0.307	0.238	0.266	0.287	0.339	0.332	0.32	0.349
LOU-NH91	0.69	0.666	0.665	0.701	0.54	0.762	0.804	0.8	0.786	0.772	0.349	0.385	0.42	0.416	0.414		0.461	0.556	0.496	0.439
NCI-H727	0.601	0.633	0.505	0.67	0.488	0.446	0.367	0.405	0.403	0.418						0.396	0.303	0.456	0.469	0.451
NCI-H1563											0.458	0.806	0.767	0.762	0.839	0.446	0.481	0.452	0.43	0.402
NCI-H1623	0.481	0.404	0.398	0.463	0.364											0.591	0.512	0.488	0.699	0.474
NCI-H1648	0.415	0.608	0.518	0.61	0.345	0.38	0.48	0.383	0.49	0.535	0.679	0.832	0.731	0.782	0.702					
NCI-H1792						0.392	0.447	0.361	0.376	0.398	0.927	0.881	0.673	0.773	0.698	0.664	0.664	0.675	0.541	0.466
